Test results published in article PMC4021826, “Functional characterization of a xylose transporter in Aspergillus nidulans” (Biotechnology for Biofuels, 2014).

Target: T1, XtrD (Aspergillus nidulans, UniProt Q5BGT0)
T1 construct: gene ANIA_00250; full-length xtrD in modified vector pRH195 (HXT7 promoter), expressed in S. cerevisiae EBY.VW4000 lacking hexose transporters
T1 sequence (Q5BGT0 1-547): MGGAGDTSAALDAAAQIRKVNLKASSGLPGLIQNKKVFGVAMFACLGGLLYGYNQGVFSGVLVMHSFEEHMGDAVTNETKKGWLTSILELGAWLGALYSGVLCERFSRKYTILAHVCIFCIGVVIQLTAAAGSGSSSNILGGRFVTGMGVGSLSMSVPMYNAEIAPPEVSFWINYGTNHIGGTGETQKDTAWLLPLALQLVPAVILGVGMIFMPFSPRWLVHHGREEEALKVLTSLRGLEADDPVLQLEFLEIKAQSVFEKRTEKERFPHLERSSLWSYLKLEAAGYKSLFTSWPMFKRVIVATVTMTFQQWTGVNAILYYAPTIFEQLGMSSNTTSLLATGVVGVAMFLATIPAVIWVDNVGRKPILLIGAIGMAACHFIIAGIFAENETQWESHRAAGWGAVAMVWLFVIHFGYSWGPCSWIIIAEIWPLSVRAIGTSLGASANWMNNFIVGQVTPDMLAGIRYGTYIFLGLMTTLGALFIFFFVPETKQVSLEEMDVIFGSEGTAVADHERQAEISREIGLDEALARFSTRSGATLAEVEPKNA
Assay: competition of […]glucose uptake in S. cerevisiae EBY.VW4000 expressing xtrD
Assay type: cell-based
Conditions: 10- and 20-fold excess unlabeled xylose over glucose, respectively; 5 s uptake, 30 °C

% inhibition of radiolabeled glucose transport at 10- and 20-fold excess: 90% to 100%
Structure (SMILES): OC1OC[C@@H](O)[C@H](O)[C@H]1O (stereo partly shown) [xylose]
